Assay results from paper PMC8811960, “A Novel 2-Carbon-Linked Dimeric Artemisinin With Potent Antileukemic Activity and Favorable Pharmacology” (Frontiers in Oncology, 2022).

Legend:
[1] = tested on: C/EBP homologous protein (CHOP); experiment: Western blot for CHOP; format: cell-based, human; settings: MOLM14, 200 nM, 18h, similar results in MV4;11 and ML2
Description: (§1) Cells were pre-treated with […] ROS detection reagent 5-(and 6-)-chloromethyl-2’,7’-dichlorodihydrofluorescein diacetate (CM-H2DCFDA, Life Technologies) for 30 min, followed by the iron chelator deferoxamine mesylate (DFO; 11 mM) for 60 min. Cells were then treated with ART631 (200 nM) or DMSO control for 18h, with subsequent analysis by flow cytometry. Western blotting and quantitative reverse transcription PCR (qRT-PCR) to assess for molecular markers of ROS-mediated apoptosis were performed as previously described ([20]).
(§2) Figure 4 ART631 elevated ROS and CHOP levels and reduced MCL1 expression in MOLM14 AML cells. (A) MOLM14 AML cells were pre-treated with ROS detection reagent CM-H2DCFDA ([…]) for 30 min, pre-treated with deferoxamine mesylate (DFO; 11 mM) for 60 min, and then treated with ART631 (200 nM) or DMSO control for 18h. They were then analyzed by flow cytometry. Graph represents %CM-H2DCFDA fluorescence compared to vehicle (DMSO) control treated cells. Error bars represent SD from 3 independent experiments. (B) MOLM14 AML cells were treated for 18h with vehicle, AS (10 uM), ART838 (200 nM), ART631 (200 nM), cytarabine (AraC; 150 nM), or SOR (5 uM). Protein was isolated and western blotted for MCL1, BCL2, CHOP, and β-actin. (C) MOLM14 cells were treated as in (B) for 18h, total RNA isolated, cDNA synthesized, and SYBR Green qRT-PCR performed in triplicates. […]

[2] = Stability in human plasma (EDTA); format: in vitro ADME; settings: 10 µM, 37°C, 1h
Description: (§3) The metabolic stability of ART631 was assessed in human and mouse plasma and liver microsomes (LM). For phase I microsomal stability assays, analogs (10 µM in <1% acetonitrile) were incubated in PBS containing liver microsomes, with or without cofactors ([22]). Microsomal controls (without cofactors) were used to determine non-enzymatic degradation. All experiments were incubated at 37°C for 1h and performed in duplicate. Reactions were stopped with acetonitrile and analyzed as described below.
ART631 was extracted from 25 µL plasma or microsomal solutions with 100 µL acetonitrile containing artemisinin (i.e. the natural product) as internal standard. […] Mobile phase A was ammonium acetate (2mM) containing 0.1% formic acid, and mobile phase B was acetonitrile containing 0.1% formic acid. The gradient started with mobile phase B and was held at 40% for 0.5 minutes with a flow rate of 0.4 mL/min, then increased to 100% over 1.5 minutes and held for 2.0 minutes, and finally returned back to 40% mobile phase B and allowed to equilibrate for 2.0 minutes. An AB Sciex 5500 triple quadrupole mass spectrometer operated in positive electrospray ionization mode was used for the detection of ART631. For stability studies, the ratio of ART631 to the internal standard, artemisinin, was assessed. […]

KG1a = experiment: alamarBlue growth inhibition, KG1a; format: cell-based; settings: Homo sapiens, KG-1a, 48h, mean of 2 independent assays ± SD
Description: (§4) Cytotoxicity was assessed using alamarBlue assays (Life Technologies, Grand Island, NY) following manufacturer’s guidelines. Cell death was verified by Annexin V/7-aminoactinomycin D (7AAD) staining (BioLegend, San Diego, CA) per manufacturer’s guidelines.

MCL1 = experiment: Western blot for MCL1; format: cell-based, human; settings: MOLM14, 200 nM, 18h, similar results in MV4;11 and ML2
Description: as §1, §2

U937 = experiment: alamarBlue growth inhibition, U937; format: cell-based; settings: Homo sapiens, U-937, U937, 48h, mean of 2 independent assays ± SD
Description: as §4

ML2 = experiment: alamarBlue growth inhibition, ML2; format: cell-based; settings: Homo sapiens, ML-2, ML2, 48h, mean of 2 independent assays ± SD
Description: as §4

[3] = Phase I microsomal stability, mouse liver microsomes; format: in vitro ADME
Description: as §3
ART631 was extracted from 25 µL plasma or microsomal solutions with 100 µL acetonitrile containing artemisinin (i.e. the natural product) as internal standard. […] Mobile phase A was ammonium acetate (2mM) containing 0.1% formic acid, and mobile phase B was acetonitrile containing 0.1% formic acid. The gradient started with mobile phase B and was held at 40% for 0.5 minutes with a flow rate of 0.4 mL/min, then increased to 100% over 1.5 minutes and held for 2.0 minutes, and finally returned back to 40% mobile phase B and allowed to equilibrate for 2.0 minutes. An AB Sciex 5500 triple quadrupole mass spectrometer operated in positive electrospray ionization mode was used for the detection of ART631. For stability studies, the ratio of ART631 to the internal standard, artemisinin, was assessed. Calibration curves for ART631 were computed using the ratio of the peak area to that of the internal standard by using a quadratic equation with a 1/x^2 weighting function over the range of 8-1585 nM with dilutions of up to 1:10 (v/v).

Stability in plasma = format: in vitro ADME, human and mouse; settings: species not given
Description: as §3
We compared the in vitro stability of ART576 and ART631 ( Table 3 ). ART576 was stable in plasma (<10% degradation), but unstable with degradation of >70% in human liver microsomes with co-factors and >90% in mouse liver microsomes with co-factors ( Table 3 ).

MOLM14 = experiment: alamarBlue growth inhibition, MOLM14; format: cell-based; settings: Homo sapiens, MOLM-14; MOLM14, 48h, alamarBlue, mean of 2 independent assays ± SD; read-out: IC50
Description: as §4
In this experiment, provided to show the entire concentration:response range, MOLM14 AML cells were cultured with a range of concentrations of artesunate (AS), ART838, ART631, and ART576 for 48h. Graph indicates growth inhibition relative to vehicle (DMSO)-treated controls by alamarBlue absorbance assays. Data points and error bars represent mean and SD of 3 independent experiments done in triplicate.

For `C=CCO/N=C(/C[C@H]1O[C@@H]2O[C@@]3(C)CC[C@H]4[C@H](C)CC[C@@H]([C@H]1C)[C@@]24OO3)[C@H]1O[C@@H]2O[C@@]3(C)CC[C@H]4[C@H](C)CC[C@@H]([C@H]1C)[C@@]24OO3` [ART631], which “level of CHOP protein” value [1] is on record?
The value was “increase”.

And the “percentage remaining, Plasma (EDTA) Human” value [2]?
Its value is 60%.

And the IC50 (KG1a)?
The IC50 was 29 ± 2 nM.

What about the MCL1 protein expression (MCL1) of the same compound?
The MCL1 protein expression was “decreased”.

And the IC50 (U937)?
The IC50 was 20 ± 5 nM.

And the IC50 (ML2)?
Its IC50 is 34 ± 4 nM.

What about the “percentage remaining, Phase I Metabolism MLM NADPH(+)” value ([3]; 10 µM, 37°C, 1h, with cofactors) of the same compound?
The value was 35%.

What about the “percentage remaining, Phase I Metabolism MLM NADPH(-)” value ([3]; 10 µM, 37°C, 1h, without cofactors) of the same compound?
The value was 60%.

What about the “degradation in mouse liver microsomes with co-factors” value ([3]; NADPH-dependent phase I metabolism) of the same compound?
Its value is ~ 40%.

What about the degradation in plasma (Stability in plasma) of the same compound?
The degradation in plasma was > 40%.

And the IC50 (MOLM14)?
The IC50 was 32 ± 4 nM.
